Source: US6670334B2, “Method and compositions for treating the inflammatory response” (University of Virginia Patent Foundation, priority 2001, dated 2003)
Blank lines part the entries; values can stand above or below the compound they belong to.

Legend:
[1] = tested on: Human PMN adherent to fibrinogen; test: TNFα-stimulated superoxide release of PMN adherent to a fibrinogen coated surface; assay type: cell-based; details: rolipram 100 nM; WRC-0474[SHA 211] 30-300 nM, other agonists 300 nM; p<0.05; FIG. 5
[2] = tested on: human adherent monocytes; test: Production of TNFα by purified human adherent monocytes (endotoxin-stimulated, ELISA); assay type: cell-based; details: ZM241385 50 nM; p=0.020; FIG. 7B
Description: Production of TNFα by purified human adherent monocytes. A monocyte rich monolayer (>95% monocytes) was prepared by incubating 1 ml of the mononuclear leukocyte fraction (5×10^5/ml) from a Ficoll-Hypaque separation in wells of a 24 well tissue culture plate (1 hr; 37° C.; 5% CO2). […] The samples were incubated for 4 hr (37° C.; 5% CO2) and the supernatants harvested. Any suspended cells were removed by centrifugation and the cell-free samples frozen (−70° C.). TNFα was assayed in the cell-free supernatants by an ELISA kit (Cistron Biotechnology, Pine Brook, N.J.).

[3] = tested on: human neutrophils; test: Neutrophil oxidative activity (luminol-enhanced chemiluminescence), TNF/f-met-leu-phe stimulation; assay type: cell-based; details: TNF-alpha 10 U/ml primed, fMLP 1 μM stimulated, ADA 1 Units/ml, FIG. 13, read-out: EC50 for decreasing neutrophil oxidative activity
Text: A2A agonists blocking of neutrophil oxidative activity. […] This was detected by luminol-enhanced chemiluminescence. The EC50's were lower for the ester when compared to its acid.
A one-step Ficoll-Hypaque separation procedure (Ferrante and Thong, 1980) was used to purify human neutrophils from normal heparinized (10 Units/ml) of venous blood yielding approximately 98% neutrophils; having about >95% viable as determined with trypan blue containing <50 pg/ml of endotoxin. Following separation, the neutrophils were washed with Hank's balanced salt solution (HBSS) three times.
Neutrophil oxidative activity (luminol-enhanced chemiluminescence): The activated neutrophils emit light from unstable high-energy oxygen species produced by the plasma membrane associated NADPH oxidase and metabolized by cytoplasmic and granule enzymes. The light signal from activated neutrophils can be enhanced by the addition of luminol to the samples. […]
The purified neutrophils (1×10^6/ml) were incubated in HBSS containing 0.1% HSA (1 ml), plus adenosine deaminase (1 Units/ml), ±JR2171 or ±CGS21680, and with TNF-alpha (10 U/ml) for 30 min at 37° C. in a shaking water bath. Then luminol ([…]) enhanced f-met-leu-phe (1 μM)-stimulated chemiluminescence was read with a Chronolog Photometer (Chronolog Corp., Havertown, Pa.) at 37° C. for 8 min. […]

[4] = biological target: recombinant human A2A adenosine receptors (Homo sapiens, UniProt P29274); test: Radioligand binding assay, competition for 125I-ZM241385
[5] = tested on: PMN; test: TNF-stimulated PMN adherence to a fibrinogen-coated surface; assay type: cell-based, human
Description: PMN adherence to fibrinogen was measured as follows as adapted from Hanlon, J. Leukocyte Biol., 50, 43 (1991). Twenty-four well flat-bottomed tissue culture plates were incubated (37° C.) overnight with 0.5 ml of fibrinogen (5 mg/ml) dissolved in 1.5% NaHCO3. The plates were emptied and each well washed 2× with 1 ml of normal saline. The wells were then filled with 1 ml of HBSS-0.1% human serum albumin containing PMN (1×10^6/ml) with and without rhTNFα (1 U/ml), adenosine deaminase (ADA) (1 U/ML), WRC-0474[SHA 211] (10 nM), CGS21680 (30 nM), adenosine (100 nM) and rolipram (100 nM). The plates were incubated for 90 minutes at 37° C. in 5% CO2. Following incubation the tissue culture wells were washed free of non-adherent cells with normal saline. The adherent monolayer of PMN was lysed with 0.1% triton-X, the amount of lactic dehydrogenase (LDH) released from the monolayer assayed (LDH kit, Sigma Co., St. Louis, Mo.), and compared to a standard curve relating the LDH content to PMN numbers.

[6] = tested on: Adult wistar rats with bacteria meningitis (BM); test: Rat model of inflammation (bacteria meningitis): CSF WBC pleocytosis and blood-brain barrier permeability; assay type: in vivo
Description: Effects of WRC-0470 and rolipram on the extravasation of white blood cells in a rat model of inflammation. Adult wistar rats (approximately 200 g) were anesthetized with intermuscular injections of ketamine and xylazine. Bacteria meningitis (BM) was introduced via intracistemal inoculation of either E. coli strain 026:B6LPS (200 ng), cytokines (IL-1 and TNFα or LPS plus cytokines). The animals were then infused with rolipram and/or WRC-1470 over the duration of the experiment using a Harvard pump. CSF (cerebrospinal fluid) and blood was then sampled at 4 h post-inoculation and alterations in BBBP (blood-brain barrier permeability) and WBC (white blood cell) counts were determined. CSF and WBC concentrations were determined with standard hemacytometer methods. For assessment of % BBBP, rats were given an intravenous injection of 5 μCi 125I-labeled bovine serum albumin concomitant with intracistemal inoculation. Equal samples of CSF and blood were read simultaneously in a gamma counter and after subtraction of background radioactivity, % BBBP was calculated by the following formula: % BBBP=(cpm CSF/cpm blood)×100. All statistical tests were performed using Instat biostatistical software to compare the post-inoculation samples of experimental rats with the control rats. The statistical tests used to generate p-values were Student's t-test and ANOVA.

Sequence of recombinant human A2A adenosine receptors (P29274 whole entry): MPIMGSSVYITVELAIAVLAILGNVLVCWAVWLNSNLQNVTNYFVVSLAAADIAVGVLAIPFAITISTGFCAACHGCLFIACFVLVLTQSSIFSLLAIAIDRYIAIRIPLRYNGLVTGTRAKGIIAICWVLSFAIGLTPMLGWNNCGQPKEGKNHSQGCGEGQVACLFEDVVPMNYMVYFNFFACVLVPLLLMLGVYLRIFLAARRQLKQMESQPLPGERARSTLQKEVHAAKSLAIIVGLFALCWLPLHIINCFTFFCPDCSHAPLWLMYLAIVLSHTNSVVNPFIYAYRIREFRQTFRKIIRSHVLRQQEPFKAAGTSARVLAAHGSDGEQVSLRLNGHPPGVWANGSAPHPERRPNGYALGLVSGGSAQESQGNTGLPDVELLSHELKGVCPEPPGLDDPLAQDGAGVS

Compound: Cc1ccc(CCOc2nc(N)c3ncn([C@@H]4O[C@H](CO)[C@@H](O)[C@H]4O)c3n2)cc1 [WRC-0090]
TNFα-stimulated adherent PMN superoxide release, agonist combined with rolipram [1]: synergistically decreased superoxide release

Compound: Nc1nc(NCCc2ccc(O)cc2)nc2nc(-c3ccco3)nn12 [ZM241385, 4-(2-[7-amino-2-(2-furyl)[1,2,4]-triazolo[2,3a]-[1,3,5]trazinyl-amino]ethyl)-phenol]
antagonism of the effect of WRC-0470 (300 nM) combined with rolipram (300 nM) on TNFα release from monocytes [2]: significantly inhibited the effect

EC50 [3]: 0.371 nM
Ki [4]: 45 nM
Compound: CCNC(=O)C1OC(n2cnc3c(N)nc(NCCc4ccc(CCC(=O)OC)cc4)nc32)C(O)C1O (stereo not drawn) [JR2171, 3-(4-{2-[6-Amino-9-(5-ethylcarbamoyl-3,4-dihydroxy-tetrahydro-furan-2-yl)9H-purin-2-ylamino]-ethyl}-phenyl)-propionic acid methyl ester]

Compound: Nc1ncnc2c1ncn2[C@@H]1O[C@H](CO)[C@@H](O)[C@H]1O [adenosine]
TNF-stimulated PMN adherence, % adhered ([5]; 100 nM, p=0.009 compared to TNF in the presence of ADA): 28%

Compound: COc1ccc(C2CNC(=O)C2)cc1OC1CCCC1 (stereo not drawn) [Rolipram, 4-(3-cyclopentyloxy-4-methoxyphenyl)-2-pyrrolidone]
alterations of BBBP ([6]; 0.002 μg/kg/hr): no significant effect
inhibition of CSF pleocytosis ([6]; 0.01 μg/kg/hr, p<0.05, FIG. 10): 99%
alterations of BBBP ([6]; 0.01 or 0.005 μg/kg/hr, p<0.05): significant inhibition
WBC migrated into the sub-arachnoid space (CSF WBC) ([6]; rolipram alone (0.001 μg/kg/hr), p<0.050): 1,670±1,273 WBC/μl

Compound: Nc1nc(OCCc2ccc3ccccc3c2)nc2c1ncn2[C@@H]1O[C@H](CO)[C@@H](O)[C@H]1O [WRC-0018]
TNFα-stimulated adherent PMN superoxide release, agonist combined with rolipram [1]: synergistically decreased superoxide release

EC50 [3]: 2.09 nM
Compound: CCNC(=O)C1OC(n2cnc3c(N)nc(NCCc4ccc(CCC(=O)O)cc4)nc32)C(O)C1O (stereo not drawn) [CGS21680, 3-(4-{2-[6-amino-9-(5-ethylcarbamoyl-3,4-dihydroxy-tetrahydro-furan-2-yl)-9H-purin-2-ylamino]-ethyl}-phenyl)-propionic acid]
TNF-stimulated PMN adherence, % adhered ([5]; 30 nM, in the presence of ADA, TNF+ADA control 38%, p=0.004): 30%
